# According to PMC3499368, “Evolution of Minimal Specificity and Promiscuity in Steroid Hormone Receptors” (PLoS Genetics, 2012):
# pEC50: −log10 of the molar value. Like-named read-outs stand apart in the source and are kept apart here.
# Key:
# AncSR1-LBD = assay: luciferase reporter gene assay, Gal4-DBD fusion of AncSR1-LBD in CHO-K1 cells, activation; format: cell-based; conditions: for activation (in words): fold activation at 10^-6 M, Fig. S5C
# Source text: (§1) To experimentally test these hypotheses, we synthesized cDNAs for the AncSR1 and AncSR2 LBD protein sequences, expressed them as Gal4-DBD fusion constructs, and characterized their sensitivity to hormones using luciferase reporter gene assays.
# AncSR1_Alt1 = assay: luciferase reporter assay, alternative reconstruction AncSR1_Alt1; format: cell-based; conditions: for pEC50: Alt1, Fig. S5B; for activation (in words): Alt1, fold activation at 10^-6 M, Fig. S5C
# Source text: (§2) To determine the robustness of functional inferences to statistical uncertainty in the reconstruction of AncSR1 and AncSR2, we used two approaches. AncSR1 had too many ambiguously reconstructed sites to examine each such residue individually, so we computationally sampled from the posterior probability distribution of reconstructed amino acid states to generate a cloud of possible ancestral sequences, each harboring a large number of alternate states. Specifically, we generated 1,000,000 possible ancestral sequences by sampling from the posterior probability distribution of states at each site. […] We synthesized these five radically alternative ancestral reconstructions de novo and repeated the functional assays.
# (§3) A) Distribution of posterior probabilities of 1 million protein sequences assembled by sampling amino acid states at each site from the posterior probability distribution for AncSR1 LBD. The ML reconstruction (AncSR1-ML) and the five alternative sequences with the highest posterior probability (Alt1-Alt5) in the 1 million samples are […]
# (§4) The column height and error bars indicate the mean and SEM of three independent experiments, respectively. […]
# AncSR1_Alt2 = assay: luciferase reporter assay, alternative reconstruction AncSR1_Alt2; format: cell-based; conditions: for pEC50: Alt2, Fig. S5B; for activation (in words): Alt2, fold activation at 10^-6 M, Fig. S5C
# Source text: as §2, §3, §4
# AncSR1_Alt3 = assay: luciferase reporter assay, alternative reconstruction AncSR1_Alt3; format: cell-based; conditions: for pEC50: Alt3, Fig. S5B; for activation (in words): Alt3, fold activation at 10^-6 M, Fig. S5C
# Source text: as §2, §3, §4
# AncSR1_Alt4 = assay: luciferase reporter assay, alternative reconstruction AncSR1_Alt4; format: cell-based; conditions: for pEC50: Alt4, Fig. S5B; for activation (in words): Alt4, fold activation at 10^-6 M, Fig. S5C
# Source text: as §2, §3, §4
# AncSR1_Alt5 = assay: luciferase reporter assay, alternative reconstruction AncSR1_Alt5; format: cell-based; conditions: for pEC50: Alt5, Fig. S5B; for activation (in words): Alt5, fold activation at 10^-6 M, Fig. S5C
# Source text: as §2, §3, §4
# AncSR1 = assay: luciferase reporter assay, inhibition of AncSR1 in the presence of estradiol; format: cell-based; conditions: with estradiol
# AncSR2 = assay: luciferase reporter assay, inhibition of AncSR2 in the presence of EC80 11-deoxycorticosterone; conditions: in the presence of EC80 11-deoxycorticosterone (1.7 nM)
# AncSR2-LBD = assay: luciferase reporter gene assay, Gal4-DBD fusion of AncSR2-LBD in CHO-K1 cells, activation; format: cell-based; conditions: for pEC50: AncSR2, representative dose activation curves (Fig. S4) and Table S5 sections c-i
# Source text: as §1, with “assays. […] It was unresponsive to a broad array of androgens, progestagens, and corticosteroids, as well as cholesterol (Figure 2A, Figure S3).” for “assays.”
# For AncSR2, we identified all plausible alternate reconstructions (those with posterior probability >0.20 excluding biochemically similar K/R, D/E, S/T, and I/L differences) and introduced each alternate state individually into the AncSR2 background using the Quikchange Mutagenesis kit (Stratagene), verified clones by sequencing, and repeated the activation assays with each version of AncSR2 (Figure S6). The ML AncSR2 sequence reconstructed on the ML tree had high baseline activation in the absence of ligand; this phenotype is almost certainly an artifact, because constitutive baseline activity is not present in any of AncSR2's extant descendants; it is well-established that some amino acid replacements can cause nuclear receptors to become constitutive by marginally stabilizing the active conformation in the absence of hormone. […] The “constitutive” Leu79 state is weakly supported on the ML tree (PP = 0.59), and has no support (PP = 0.00) on the phylogeny that is most parsimonious in terms of gene duplications and losses; in contrast, the “non-constitutive” state Met79 has PP = 0.41 on the ML tree and PP = 1.00 on the rearranged gene duplication/loss tree (Figure S12, Table S8). The AncSR2 sequence used for all experiments reported in the text therefore contains state Met79. The other alternate reconstructions were then reintroduced into this AncSR2 sequence: none qualitatively changed the receptor's sensitivity to the various classes of steroid hormones, except for A171V, which conferred constitutive activity (Figure S6).
# [1] = AncSR1, representative dose activation curves (Fig. S3) and Table S5 section b
# [2] = AncSR2, Table S5 section f, pairs H1/H2: 1/6, 2/7, listed as given under Hormone 1
# [3] = AncSR2, Table S5 section g, pairs H1/H2: 1/3, 2/4, listed as given under Hormone 1
Compound,pEC50 (AncSR1-LBD; [1]),"pEC50 (AncSR1-LBD; AncSR1-ML, Fig. S5B)",pEC50 (AncSR1_Alt1),pEC50 (AncSR1_Alt2),pEC50 (AncSR1_Alt3),pEC50 (AncSR1_Alt4),pEC50 (AncSR1_Alt5),inhibition of AncSR1 (in words) (AncSR1),inhibition of AncSR2 (in words) (AncSR2),activation (in words) (AncSR1-LBD; AncSR1-ML),activation (in words) (AncSR1_Alt1),activation (in words) (AncSR1_Alt2),activation (in words) (AncSR1_Alt3),activation (in words) (AncSR1_Alt4),activation (in words) (AncSR1_Alt5),further results
C[C@]12CC[C@@H]3c4ccc(O)cc4CC[C@H]3[C@@H]1CCC2=O [estrone],7.16,6.68,6.88,5.52,7.38,6.07,6.65,,,,,,,,,
C[C@]12CC[C@@H]3c4ccc(O)cc4CC[C@H]3[C@@H]1C[C@@H](O)[C@@H]2O [estriol],6.01,6.01,6.49,5.65,6.83,5.70,6.41,,,,,,,,,
"CC/C(=C(\c1ccc(O)cc1)c1ccc(OCCN(C)C)cc1)c1ccccc1 [4-hydroxytamoxifen, 4-Hydroxytamoxifen]",,,,,,,,competitively inhibited,not inhibited,,,,,,,
C[C@]12CCC(=O)C[C@@H]1CC[C@@H]1[C@@H]2CC[C@]2(C)[C@@H](O)CC[C@@H]12 [dihydrotestosterone],,,,,,,,,,none are activated,none are activated,none are activated,none are activated,none are activated,none are activated,pEC50 (AncSR2-LBD): 6.76
"C[C@]12CC[C@@H]3c4ccc(O)cc4C[C@@H](CCCCCCCCC[S+]([O-])CCCC(F)(F)C(F)(F)F)[C@H]3[C@@H]1CC[C@@H]2O (stereo partly shown) [ICI 182,780, fulvestrant]",,,,,,,,competitively inhibited,not inhibited,,,,,,,
11-deoxycorticosterone,,,,,,,,,,none are activated,none are activated,none are activated,none are activated,none are activated,none are activated,"EC80 (AncSR2-LBD; AncSR2, 11-deoxycorticosterone concentration used in inhibition assay): 1.7 nM; Ratio H1/H2 of EC50, preference for 21-OH group vs. H group (AncSR2-LBD; [2]): 0.08; Ratio H2/H1 of EC50, preference for 21-OH group vs. H group (AncSR2-LBD; [2]): 13.10; Ratio H1/H2 of EC50, preference for 11-OH vs. H group (AncSR2-LBD; [3]): 1.35; Ratio H2/H1 of EC50, preference for 11-OH vs. H group (AncSR2-LBD; [3]): 0.74; pEC50 (AncSR2-LBD; read-out: EC50): 9.38"
